The results in this text go back to a melting point compilation (Tetko et al.).

By melting point is commonly meant the temperature, or range, at which the solid turns liquid. As for `Cc1cc(S(=O)(=O)Cl)c(Cl)cc1F`, the melting point lay within 44 to 46 °C.

Compound `N#CC1=C(N)CCC1` had a melting point of 146 to 148 °C.

Consider `CC1(C)C(O)CC1O` (stereo not drawn), for which the melting point fell in the range of 104 to 106 °C.

In turn, `O=C1CCCc2sccc2N1` yielded a melting point of 119 to 121 °C.

In turn, `CCCCn1c(=O)[nH]c(=O)c2c1nc(CO)n2CCC` showed a melting point of 134 to 136 °C. To `CC(=O)c1ccc(N2CCCC2)c(F)c1` belongs 36 to 38 °C; to `Clc1ncnc2c(Br)cccc12`, 159 to 161 °C; to `COc1ccc(S(=O)(=O)Nc2cccc(CN)c2)cc1`, 125 to 127 °C. Regarding `Nc1ccc(Oc2ccnc3ccccc23)cc1`, the melting point fell in the range of 135 to 137 °C.

The compound `Cc1cc(F)ccc1CO` displayed a melting point of 44 to 46 °C.

`Cc1nc(Cl)c2cc[nH]c2n1`: the melting point is 199 to 201 °C.

`O=C(O)c1ccc(-c2ccccc2)o1`: the melting point lay within 153 to 155 °C. In the case of `CNS(=O)(=O)c1ccccc1N1CCC(N)CC1` it was 119 to 121 °C. On to `N#CCC(=O)c1ccc(Cl)cc1Cl`, for which the melting point lay in the range of 62 to 64 °C. As to `CCOC(=O)C(=O)Nc1ccc(C)cc1`, the melting point lay in the range of 64 to 66 °C. `Nc1nncc(-c2cc(Cl)ccc2Cl)n1` displayed a melting point of 175 to 177 °C. As to `N#CC=Cc1ccc(C(F)(F)F)cc1`, the melting point was in the range of 89 to 91 °C.

For `O=C(O)c1cc(S(=O)(=O)Cl)cc(Br)c1Cl`, the melting point fell in the range of 160 to 162 °C. The compound `O=C(O)c1ccc(NS(=O)(=O)C(F)(F)F)cc1` displayed a melting point of 226 to 228 °C. Regarding `NC(=O)c1ccccc1N1CCC(N)CC1`, the melting point was in the range of 143 to 145 °C. `CCc1cc2c(Cl)ncnc2s1` yielded a melting point of 55 to 57 °C. `O=C(O)c1cc(Cl)ccc1OC1CCCC1` had a melting point of 95 to 97 °C.

As for `OCc1nc2cc(Br)ccc2[nH]1`, the melting point was 179 to 181 °C. For `Cc1cccc(OC(C)C(=O)NN)c1C` (stereo not drawn), the melting point lay in the range of 140 to 144 °C. `O=C1CNc2ccc(S(=O)(=O)N3CCCCC3)cc2N1`: the melting point was 144 to 146 °C. Compound `Nc1ccc(Cl)c(C(=O)NC2CC2)c1` registered a melting point of 126 to 128 °C. On to `CN1C(=O)CC(C(N)=O)C1c1cccc(Cl)c1` (stereo not drawn), for which the melting point lay within 188 to 190 °C. `Cc1cc(C(=O)O)ccc1S(=O)(=O)Cl` registered a melting point of 197 to 199 °C. Turning to `COc1ccnc(NCc2cccc(C(=O)O)c2)n1`, the melting point was 219 to 221 °C. The compound `O=S(=O)(Cl)c1ccc2nc(Cl)ccc2c1` gave a melting point of 138 to 140 °C. `O=C(O)CCNC(=O)C1CC1` displayed a melting point of 107 to 109 °C.

Consider `O=C(O)CCCS(=O)c1ccc(Br)cc1` (stereo not drawn), for which the melting point lay in the range of 121 to 123 °C. Regarding `CCC(=O)Nc1ccc(S(=O)(=O)Cl)cc1`, the melting point lay in the range of 109 to 111 °C.

Consider `COc1ccc(-c2cc(C(=O)NN)[nH]n2)cc1`, for which the melting point was in the range of 205 to 220 °C. Take `O=C1CNC(=O)N1CCBr`: the melting point fell in the range of 134 to 136 °C.

With `Clc1cc2nnc(-c3ccccc3)n2cn1`, the melting point lay within 155 to 157 °C. Turning to `COC(=O)c1ccc(N)cc1Cl`, the melting point was in the range of 107 to 109 °C.

Turning to `COc1ccc([N+](=O)[O-])cc1CCl`, the melting point fell in the range of 78 to 80 °C. As to `Cc1ccc(C(=O)O)cc1N1C(=O)C2CC=CCC2C1=O` (stereo not drawn), the melting point lay in the range of 221 to 223 °C. In the case of `O=C1CCS(=O)(=O)c2ccc(F)cc21`, the melting point lay in the range of 163 to 167 °C. As to `CC(C(=O)O)S(C)(=O)=O` (stereo not drawn), the melting point was 86 to 88 °C.

The compound `O=C(O)C1CCCN(c2ncccc2C(F)(F)F)C1` (stereo not drawn) gave a melting point of 86 to 88 °C.

Consider `CC(N)c1ccc(-n2ccnc2)cc1` (stereo not drawn), for which the melting point was in the range of 50 to 52 °C. `COc1ccc(CCNC(=O)CC(=O)NCCc2ccc(OC)cc2)cc1` returned a melting point of 161 to 163 °C. In the case of `O=C(O)C1(c2ccc(OCc3ccccc3)cc2)CCOCC1`, the melting point fell in the range of 151 to 153 °C. In the case of `CC(N)Cn1cnc2c(cnn2C)c1=O` (stereo not drawn) it was 148 to 150 °C; in that of `CCc1c(C(=O)O)[nH]c(C)c1C(C)=O`, 202 to 204 °C. Consider `Nc1nnc(CCOc2ccccc2)o1`, for which the melting point was in the range of 142 to 144 °C.

`O=C(O)c1cc([N+](=O)[O-])ccc1Oc1ccccc1` registered a melting point of 167 to 169 °C. To `Cc1cc(Br)cc(Cl)c1OCC(=O)O` belongs 197 to 199 °C.

Consider `CC(C)(C)C1CNC(=O)C1` (stereo not drawn), for which the melting point fell in the range of 130 to 132 °C. `O=c1ccc(C(F)(F)F)n[nH]1`: the melting point lay within 125 to 127 °C. In the case of `Cc1ccc(S(=O)(=O)NCCCC(=O)O)cc1C` it was 111 to 113 °C. With `CC(Oc1ccc(O)cc1)C(N)=O` (stereo not drawn), the melting point lay within 138 to 140 °C. Compound `Cc1ccc(NC(=O)C(Cl)c2ccccc2)cc1Cl` (stereo not drawn) returned a melting point of 120 to 122 °C. With `O=C(O)c1nnn(-c2ccc(F)cc2)c1C1CC1`, the melting point was 173 to 175 °C. To `Nc1c(O)cccc1F` belongs 121 to 123 °C; to `O=C1Nc2ccc(S(=O)(=O)Cl)c3cccc1c23`, 197 to 199 °C. `O=C(O)c1occc1-c1ccccc1` yielded a melting point of 142 to 144 °C.

As to `CNc1nc(C)cs1`, the melting point was 69 to 71 °C. In the case of `O=S(=O)(Cl)C=Cc1ccc(Cl)cc1` it was 131 to 133 °C. `O=C(O)c1ccccc1SC1CCS(=O)(=O)C1` (stereo not drawn): the melting point was 165 to 167 °C. On to `Cc1ccc(-n2cnnc2SCC(=O)O)cc1`, for which the melting point was 218 to 220 °C. As to `O=C(O)c1noc(-c2ccc(F)cc2)n1`, the melting point was in the range of 129 to 131 °C.

Compound `CC(=O)c1ccc(-c2ccc(C(=O)O)o2)cc1` yielded a melting point of 219 to 221 °C. Consider `CCc1c(C)sc2[nH]c(COCC(=O)O)nc(=O)c12`, for which the melting point is 193 to 195 °C.

In turn, `Cc1cc(N)n(C(=O)OC(C)(C)C)n1` displayed a melting point of 135 to 137 °C. Take `NS(=O)(=O)c1c[nH]c(=O)[nH]c1=O`: the melting point lay in the range of 299 to 301 °C. Consider `CCCC(NC(C)=O)C(=O)O` (stereo not drawn), for which the melting point fell in the range of 114 to 116 °C. In the case of `Cc1c(N)cccc1S(C)(=O)=O` it was 117 to 119 °C; in that of `COc1ccc(-n2c(C)cc(C(=O)CCl)c2C)cc1`, 91 to 95 °C. In the case of `CC(Cl)c1nc2ccccc2c(=O)[nH]1` (stereo not drawn) it was 250 to 252 °C. In the case of `CN(C(=O)c1cccc(C(=O)O)c1)c1ccccc1` it was 170 to 172 °C; in that of `O=C(O)c1ccc(-c2nnc(-c3ccccc3)o2)cc1`, 299 to 301 °C. `O=C(O)CSCc1ccc(Cl)cc1`: the melting point lay within 57 to 59 °C.

In turn, `CC1=NN(c2cc(C)ccc2C)C(=O)C1` registered a melting point of 164 to 166 °C. As to `Cc1nn(C(F)F)c(C)c1CC(=O)O`, the melting point fell in the range of 173 to 175 °C. `NC(=S)N1CCN(c2nccs2)CC1` registered a melting point of 179 to 181 °C. Compound `NS(=O)(=O)C1CCCC1` came in with a melting point of 76 to 78 °C. In turn, `NCc1ccc(-n2cncn2)cc1Cl` showed a melting point of 111 to 113 °C. Compound `CCOc1ccc(S(=O)(=O)NCCC(=O)O)cc1` had a melting point of 178 to 180 °C. Turning to `CC(Cl)c1nnc(-c2ccc(Cl)c(Cl)c2)o1` (stereo not drawn), the melting point is 93 to 95 °C. On to `O=C(O)c1ccc2nncn2c1`, for which the melting point is 315 to 317 °C. As to `CC(=O)NC1(C(N)=NO)CCN(C)CC1`, the melting point was 202 to 204 °C. As to `CCOC(=O)c1nc(-c2ccccc2)oc1N`, the melting point lay within 181 to 183 °C. To `C=CCn1c(=O)c2ccccc2n2c(S)nnc12` belongs 177 to 179 °C; to `CCOC(=O)CNc1cc(Cl)cc(Cl)c1`, 99 to 101 °C; to `N#Cc1c(O)c(Cl)c(Cl)c(C#N)c1Cl`, 256 to 258 °C. Turning to `NC(=O)C1NCCc2ccccc21` (stereo not drawn), the melting point was 180 to 182 °C. The compound `NS(=O)(=O)c1c(Br)cc(F)cc1Br` gave a melting point of 174 to 176 °C. In turn, `Cc1ncc([N+](=O)[O-])cc1C(=O)O` displayed a melting point of 210 to 214 °C. As to `CCOC(=O)Cc1nc2ccccc2[nH]1`, the melting point was 179 to 181 °C.

`Cc1n[nH]c(C)c1S(=O)(=O)N1CCC(C)CC1` gave a melting point of 178 to 180 °C. To `N#CCC(=O)c1ccc(F)c(C(F)(F)F)c1` belongs 51 to 53 °C; to `O=S(CCCl)c1ccccc1` (stereo not drawn), 34 to 36 °C; to `O=C(O)C1CCCN1C(=O)Nc1ccc(F)cc1` (stereo not drawn), 163 to 165 °C. To `CCC1(C)CCNC(=O)CC1` (stereo not drawn) belongs 76 to 78 °C; to `Nc1cccc(-n2ccnc2)c1`, 112 to 114 °C. To `N#Cc1ccccc1OCC(=O)O` belongs 182 to 184 °C; to `Cc1cc(C(=O)O)c2c(C3CC3)noc2n1`, 201 to 203 °C; to `COc1ccc2nc(CCl)[nH]c2n1`, 151 to 153 °C. `CC(C)n1cc(Br)cc1C(=O)O`: the melting point was 148 to 150 °C.

As to `Cc1c(C)c(C)c(S)c(C)c1C`, the melting point lay within 62 to 64 °C. In the case of `COC(=O)c1cccc(N2CC(=O)NC2=O)c1` it was 189 to 191 °C; in that of `Fc1ccc(Nc2nccs2)cc1Cl`, 124 to 126 °C; in that of `O=C(O)Cc1cc(=O)n(C2CCS(=O)(=O)C2)[nH]1` (stereo not drawn), 168 to 170 °C. For the compound `O=C(O)CN1CCSC1=O`, the melting point was 173 to 175 °C. Take `Cc1ccc(-c2csc(CN)n2)cc1`: the melting point was in the range of 72 to 74 °C. In the case of `CCc1cc2c(C)cc(=O)oc2cc1O` it was 216 to 218 °C; in that of `CCOC(=O)NC(=S)Nc1nccs1`, 169 to 171 °C.

In the case of `CN(C)S(=O)(=O)c1cccc(C(=O)O)c1`, the melting point was in the range of 146 to 150 °C. The compound `CCc1ccc(C(=O)O)cc1N` displayed a melting point of 146 to 148 °C. Regarding `CCN(CC)S(=O)(=O)c1cccc(N)c1`, the melting point lay in the range of 84 to 86 °C. To `O=C(O)CCc1nc(-c2ccsc2)no1` belongs 153 to 155 °C; to `O=C(O)CN1C(=O)C2CCCCC2C1=O` (stereo not drawn), 88 to 90 °C; to `N#CC(C(=O)CCl)c1nc2ccccc2c(=O)[nH]1` (stereo not drawn), 216 to 218 °C. With `CCOC(=O)c1c(-c2ccccc2Cl)csc1N`, the melting point lay in the range of 65 to 73 °C. For `COc1ccc(-c2csc(C)n2)cc1`, the melting point was in the range of 55 to 57 °C. The compound `NC(=S)c1ncc(N)s1` returned a melting point of 191 to 193 °C. As to `N#Cc1ccccc1CS(=O)(=O)Cl`, the melting point lay in the range of 85 to 87 °C. Compound `O=C(O)Cc1ccco1` yielded a melting point of 64 to 69 °C. For `Nc1nc(-c2ccccc2Cl)cs1`, the melting point was 142 to 144 °C. In turn, `C#CCNC(=O)CC(=O)O` came in with a melting point of 64 to 66 °C.
